ChEMBL document CHEMBL1821576, “Synthesis and antitumour activity of β-hydroxyisovalerylshikonin analogues” (Eur J Med Chem, 2011)

Experiments:
[1] = system: HeLa; assay: Cytotoxicity against human HeLa cells by MTT assay; assay type: functional, cell-based
[2] = system: DU-145; assay: Cytotoxicity against human DU145 cells by MTT assay; assay type: functional, cell-based
[3] = system: DU-145; assay: Ratio of cyclophosphamide IC50 to compound IC50 for human DU145 cells; assay type: functional
[4] = system: HeLa; assay: Ratio of cyclophosphamide IC50 to compound IC50 for human HeLa cells; assay type: functional
[5] = system: DU-145; assay: Ratio of beta-hydroxyisovalerylshikonin IC50 to compound IC50 for human DU145 cells; assay type: functional
[6] = system: HeLa; assay: Ratio of beta-hydroxyisovalerylshikonin IC50 to compound IC50 for human HeLa cells; assay type: functional

CC(C)=CC[C@@H](OC(=O)C1CCCCO1)C1=CC(=O)c2c(O)ccc(O)c2C1=O (stereo partly drawn)
IC50 [1]: > 100 µM
IC50 [2]: 24.7 µM

CCCCC(C)(O)CC(=O)O[C@H](CC=C(C)C)C1=CC(=O)c2c(O)ccc(O)c2C1=O (mixture of isomers)
IC50 [1]: 60.6 µM
IC50 [2]: 76.5 µM

CCCCC(O)CC(=O)O[C@H](CC=C(C)C)C1=CC(=O)c2c(O)ccc(O)c2C1=O (mixture of isomers)
IC50 [1]: 72.2 µM
IC50 [2]: 45.3 µM

O=c1[nH]cc(F)c(=O)[nH]1 [FLUOROURACIL]
IC50 [1]: > 100 µM
IC50 [2]: > 100 µM

CCCCCCC(C)(O)CC(=O)O[C@H](CC=C(C)C)C1=CC(=O)c2c(O)ccc(O)c2C1=O (mixture of isomers)
IC50 [1]: > 100 µM
IC50 [2]: > 100 µM

CC(C)=CC[C@@H](OC(=O)CCO)C1=CC(=O)c2c(O)ccc(O)c2C1=O
IC50 [1]: 67.6 µM
IC50 [2]: 55.3 µM

CC[C@](C)(O)CC(=O)O[C@H](CC=C(C)C)C1=CC(=O)c2c(O)ccc(O)c2C1=O (racemic)
IC50 [1]: 30.2 µM
IC50 [2]: 20.5 µM

CC(C)=CC[C@@H](OC[C@H](C)O)C1=CC(=O)c2c(O)ccc(O)c2C1=O
IC50 [1]: 40.3 µM
IC50 [2]: 24.5 µM

COC(C)CO[C@H](CC=C(C)C)C1=CC(=O)c2c(O)ccc(O)c2C1=O (mixture of isomers)
IC50 [1]: 53.4 µM
IC50 [2]: 16.6 µM

CCC(CO[C@H](CC=C(C)C)C1=CC(=O)c2c(O)ccc(O)c2C1=O)OC (mixture of isomers)
IC50 [1]: 63.5 µM
IC50 [2]: 45.7 µM

CC(=O)OCCC(=O)O[C@H](CC=C(C)C)C1=CC(=O)c2c(O)ccc(O)c2C1=O
IC50 [1]: 17.3 µM
IC50 [2]: 15.7 µM

CCC(O)CO[C@H](CC=C(C)C)C1=CC(=O)c2c(O)ccc(O)c2C1=O (mixture of isomers)
IC50 [1]: 28.7 µM
IC50 [2]: 16.4 µM

CCC(O)(CC)CC(=O)O[C@H](CC=C(C)C)C1=CC(=O)c2c(O)ccc(O)c2C1=O
IC50 [1]: 52 µM
IC50 [2]: 67 µM

CCCCC(CC(=O)O[C@H](CC=C(C)C)C1=CC(=O)c2c(O)ccc(O)c2C1=O)OC(C)=O (stereo partly drawn)
IC50 [1]: 73.5 µM
IC50 [2]: 67.7 µM

CCC(CO[C@H](CC=C(C)C)C1=CC(=O)c2c(O)ccc(O)c2C1=O)OC(C)=O (mixture of isomers)
IC50 [1]: 44 µM
IC50 [2]: 25.4 µM

CC(C)=CC[C@@H](OC(=O)CC(C)(C)O)C1=CC(=O)c2c(O)ccc(O)c2C1=O [BETA-HYDROXYISOVALERYLSHIKONIN]
IC50 [1]: 55 µM
IC50 [2]: 16.8 µM

CC(C)=CC[C@@H](OC(=O)CC(O)c1ccccc1)C1=CC(=O)c2c(O)ccc(O)c2C1=O (mixture of isomers)
IC50 [1]: 44.5 µM
IC50 [2]: 17 µM

CCC(C)(O)CC(=O)O[C@H](CC=C(C)C)C1=CC(=O)c2c(O)ccc(O)c2C1=O (mixture of isomers)
IC50 [1]: 25.2 µM
IC50 [2]: 16 µM

CCCC(C)(O)CC(=O)O[C@H](CC=C(C)C)C1=CC(=O)c2c(O)ccc(O)c2C1=O (mixture of isomers)
IC50 [1]: 72 µM
IC50 [2]: 75 µM

CC[C@@](C)(O)CC(=O)O[C@H](CC=C(C)C)C1=CC(=O)c2c(O)ccc(O)c2C1=O
IC50 [1]: 17.9 µM
IC50 [2]: 12.7 µM

CC(C)=CC[C@@H](OC[C@@H](C)O)C1=CC(=O)c2c(O)ccc(O)c2C1=O
IC50 [1]: 22.5 µM
IC50 [2]: 14.3 µM

CC(C)=CC[C@@H](OC(=O)C1CCCOC1)C1=CC(=O)c2c(O)ccc(O)c2C1=O (stereo partly drawn)
IC50 [1]: 60.5 µM
IC50 [2]: 29.7 µM

CC(C)=CC[C@@H](OC(=O)c1ccco1)C1=CC(=O)c2c(O)ccc(O)c2C1=O
IC50 [1]: 80.3 µM
IC50 [2]: > 100 µM

CCCC(O)CC(=O)O[C@H](CC=C(C)C)C1=CC(=O)c2c(O)ccc(O)c2C1=O (mixture of isomers)
IC50 [1]: 59.3 µM
IC50 [2]: > 100 µM

CC(C)=CC[C@@H](OC(=O)C1CCOC1)C1=CC(=O)c2c(O)ccc(O)c2C1=O (stereo partly drawn)
IC50 [1]: 73.5 µM
IC50 [2]: 47.5 µM

CC(C)=CC[C@@H](OC(=O)C1CCCO1)C1=CC(=O)c2c(O)ccc(O)c2C1=O (stereo partly drawn)
IC50 [1]: 17 µM
IC50 [2]: 10.5 µM
Ratio IC50 [3]: 5
Ratio IC50 [4]: 4

CC(=O)OC(C)CO[C@H](CC=C(C)C)C1=CC(=O)c2c(O)ccc(O)c2C1=O (mixture of isomers)
IC50 [1]: 40.1 µM
IC50 [2]: 16.6 µM

CC(C)=CC[C@@H](OC(=O)c1ccoc1)C1=CC(=O)c2c(O)ccc(O)c2C1=O
IC50 [1]: > 100 µM
IC50 [2]: > 100 µM

CC(=O)OCCO[C@H](CC=C(C)C)C1=CC(=O)c2c(O)ccc(O)c2C1=O
IC50 [1]: 41.5 µM
IC50 [2]: 15.5 µM

CC(C)=CC[C@@H](OCCO)C1=CC(=O)c2c(O)ccc(O)c2C1=O
IC50 [1]: 18.6 µM
IC50 [2]: 9.9 µM
Ratio IC50 [3]: 5
Ratio IC50 [4]: 4
Ratio IC50 [5]: 2
Ratio IC50 [6]: 3

COCCO[C@H](CC=C(C)C)C1=CC(=O)c2c(O)ccc(O)c2C1=O
IC50 [1]: 62.4 µM
IC50 [2]: 43.2 µM

CC(C)=CC[C@@H](OC(=O)CC(C)(O)C(C)C)C1=CC(=O)c2c(O)ccc(O)c2C1=O (mixture of isomers)
IC50 [1]: 27.7 µM
IC50 [2]: 16.9 µM

CCCC(CC(=O)O[C@H](CC=C(C)C)C1=CC(=O)c2c(O)ccc(O)c2C1=O)OC(C)=O (mixture of isomers)
IC50 [1]: 51.2 µM
IC50 [2]: 55.7 µM

CC(C)=CC[C@@H](OCC(C)O)C1=CC(=O)c2c(O)ccc(O)c2C1=O (mixture of isomers)
IC50 [1]: 24.7 µM
IC50 [2]: 16.1 µM

CC(C)=CC[C@@H](OC(=O)CC(C)(O)c1ccccc1)C1=CC(=O)c2c(O)ccc(O)c2C1=O (mixture of isomers)
IC50 [1]: 85.7 µM
IC50 [2]: > 100 µM

O=P1(N(CCCl)CCCl)NCCCO1 (stereo not drawn) [CYCLOPHOSPHAMIDE ANHYDROUS]
IC50 [1]: 71.4 µM
IC50 [2]: 52.5 µM
